Experiments:
Type in all cases: in vivo
mice = experiment: acute toxicity, intramuscular, mice; details: 750 mg/kg in 3% solution (25 ml/kg)
Protocol: (§1) No mortality is observed in mice or rats treated at the rate of 750 mg/kg of benzyl alcohol in 3% solution (viz 25 ml/kg of solution) by the intramuscular route.

rats [1] = experiment: acute toxicity, intramuscular, rats; details: 750 mg/kg in 3% solution (25 ml/kg)
Protocol: as §1

rats [2] = experiment: sub-acute toxicity, intramuscular, 2 weeks, male and female rats; details: 150 mg/kg (5 ml/kg of 3% solution)
Protocol: Over a period of 2 weeks, 10 male rats and female rats receive 150 mg/kg of benzyl alcohol, that is to say 5 ml/kg of 3% aqueous solution by the intramuscular route. […] Within the context of the anatomopathological examination, the liver, kidneys, spleen, lungs, suprarenals, testicles and ovaries are normal.

Structure (SMILES): OCc1ccccc1 [benzyl alcohol]
- mortality (mice): No mortality
- mortality (rats [1]): No mortality
- abnormal symptoms (rats [2]): No abnormal symptom appears
- anatomopathological examination (liver, kidneys, spleen, lungs, suprarenals, testicles and ovaries) (rats [2]): normal
- haematological variations (rats [2]): within the limits of physiological variations
- variations in blood and urine biochemistry (rats [2]): within the limits of physiological variations
- variations in weight (rats [2]): within the limits of physiological variations

Source: patent US4518606A, “Pharmaceutical compositions” (Beecham Group Limited, priority 1979, dated 1985)
